Test results as given in publication PMC9960827, “Cloning and Characterization of Trypanosoma congolense and T. vivax Nucleoside Transporters Reveal the Potential of P1-Type Carriers for the Discovery of Broad-Spectrum Nucleoside-Based Therapeutics against Animal African Trypanosomiasis” (International Journal of Molecular Sciences, 2023).
Values joined by “and” are separate entries in the source; they are usually repeats but may differ in a detail not shown here. Identical values can stand only once. Like-named read-outs stand apart in the source and are kept apart here. Marks after values point to notes of the source that are not given here.

Assays:
L. mexicana Cas9 = assay: Resazurin drug sensitivity assay, LmexCas9; assay type: cell-based, Leishmania mexicana; details: Leishmania mexicana, read-out: LmexCas9 EC50
Procedure, shortened: (§1)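 Dose-response data were plotted against a sigmoid equation allowing a variable slope, and the EC50 was read from that fit. Replicates were independent determinations on separate days, at least three per value, then averaged.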

TvxNT3 = TvxNT3 (Trypanosoma vivax, UniProt F9WV62); assay: cell-based; assay type: cell-based; details: for δ(ΔG0): difference in ΔG0 relative to the parent purine (adenosine or inosine); for remaining activity at 100 µM: read-out: [3H]-adenosine uptake remaining in presence of inhibitor
Sequence of TvxNT3 (F9WV62 entry or part of it): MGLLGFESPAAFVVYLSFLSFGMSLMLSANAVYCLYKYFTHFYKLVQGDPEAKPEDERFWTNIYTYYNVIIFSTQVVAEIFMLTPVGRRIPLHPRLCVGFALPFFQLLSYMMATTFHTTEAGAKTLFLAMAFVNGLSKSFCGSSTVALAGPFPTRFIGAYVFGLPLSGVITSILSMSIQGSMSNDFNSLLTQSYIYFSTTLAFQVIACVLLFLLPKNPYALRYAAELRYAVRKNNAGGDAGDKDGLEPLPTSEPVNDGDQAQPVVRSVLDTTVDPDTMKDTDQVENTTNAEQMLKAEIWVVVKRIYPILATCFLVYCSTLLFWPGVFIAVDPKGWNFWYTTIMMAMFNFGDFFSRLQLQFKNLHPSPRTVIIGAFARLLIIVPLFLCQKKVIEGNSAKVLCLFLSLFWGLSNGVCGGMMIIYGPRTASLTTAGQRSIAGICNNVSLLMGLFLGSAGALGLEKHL
Procedure, shortened: (§2)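 Transporter genes were expressed in an L. mexicana line lacking NT1 and NT2 (SUPKO), and 1 × 10^7 cells in HEPES/bicarbonate buffer pH 7.3 took up radiolabeled permeant through an oil layer, with or without inhibitor. Uptake was stopped with ice-cold unlabeled substrate or by centrifugation, and pellets were counted. IC50 against radiolabeled adenosine was converted to Ki by Cheng–Prusoff using the permeant Km.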

L. mexicana SUPKO+TcoAT1 = assay: microbe, parasite or virus in culture; assay type: cell-based, Leishmania mexicana; details: for EC50: Leishmania mexicana, read-out: SUPKO+TcoAT1 EC50
Procedure, shortened: as §1

L. mexicana SUPKO+TvxNT3 = assay: microbe, parasite or virus in culture; assay type: cell-based, Leishmania mexicana; details: for EC50: Leishmania mexicana, read-out: SUPKO+TvxNT3 EC50
Procedure, shortened: as §1

L. mexicana SUPKO = assay: microbe, parasite or virus in culture; assay type: cell-based, Leishmania mexicana; details: for EC50: Leishmania mexicana, read-out: SUPKO EC50, resazurin, promastigotes; for SUPKO RF (Cas9): Resistance Factor = EC50(SUPKO)/EC50(Cas9)
Procedure, shortened: as §1

[1] = biological target: T. b. brucei P1 (TbP1/NT2); details: cited from earlier work; for Ki: read-out: Tbb P1 Ki
[2] = biological target: T. congolense adenosine transporter; assay: [3H]-adenosine uptake and its inhibition in T. congolense IL3000 bloodstream forms; assay type: cell-based, Trypanosoma congolense; details: for Ki: 30 s, IC50 converted to Ki, read-out: Ki on the transport of [3H]-adenosine; for ΔG0, Gibbs free energy of interaction: calculated from Km or Ki
Procedure, shortened: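 Bloodstream-form T. congolense IL3000 (1 × 10^7 cells) in HEPES/bicarbonate buffer pH 7.3 took up [3H]-adenosine over a set interval, with or without inhibitor, ending by ice-cold unlabeled substrate stop or centrifugation through oil. Pellet radioactivity gave IC50 by sigmoid fit; Ki followed by Cheng–Prusoff using adenosine Km.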

T. congolense 6C3 [3] = assay: microbe, parasite or virus in culture; assay type: cell-based, Trypanosoma congolense; details: for EC50: Trypanosoma congolense, read-out: T. congolense 6C3 EC50; for T. congolense 6C3 RF: resistance factor = EC50 (test strain)/EC50(control strain)
Procedure, shortened: as §1

TcoAT1 [4] = assay type: cell-based, Trypanosoma congolense; details: for Ki: 10 s, IC50 converted to Ki, read-out: Ki on the transport of [3H]-adenosine; for ΔG0: Gibbs free energy of binding, from Km or Ki; for δ(ΔG0): loss of Gibbs free energy of binding relative to the parent nucleoside
Procedure, shortened: as §2

T. congolense IL3000 [5] = assay: Alamar Blue (resazurin) assay, T. congolense IL3000; assay type: cell-based, Trypanosoma congolense; details: Trypanosoma congolense; BSF, resazurin; read-out: T. congolense IL3000 EC50
Procedure, shortened: as §1

T. brucei TbAT1-KO = details: cited from earlier work
T. vivax = tested on: T. vivax; parameters: method as in Mabille et al. [69]; details: added for comparison only; ref Mabille et al. [69]; cited from earlier work
BSF T. congolense = assay: Manual cell count of T. congolense cultures exposed to drug; assay type: cell-based, Trypanosoma congolense
Procedure: For the direct assessment of test compounds on parasite growth, a manual cell count of cultures grown in the presence or absence of test drugs was carried out to determine the effect of test drugs on the multiplication rate of the parasites as described. The cells were adjusted to the required density in 2 mL of the appropriate medium with or without the drug/compound of interest, in a 24-well plate, followed by incubation under standard conditions. The cells were then manually counted at intervals with a Neubauer cell chamber using a phase-contrast light microscope (Axioscope, Zeiss, Jena, Germany).

[6] = Resazurin toxicity assay on human embryonic kidney cells; assay type: cell-based; details: human
Procedure, shortened: as §1

[7] = tested on: human embryonic kidney (HEK) cells; assay: as above; assay type: cell-based
Procedure, shortened: as §1

T. congolense 6C3 [8] = tested on: T. congolense 6C3; parameters: method as in Hulpia et al. [38]; details: values marked *; ref Hulpia et al. [38]; cited from earlier work
T.b.b. B48 [9] = tested on: T.b.b. B48; parameters: method as in Hulpia et al. [38]; details: compound marked *; ref Hulpia et al. [38]; cited from earlier work
T. equiperdum = tested on: T. equiperdum; parameters: method as in Hulpia et al. [38]; details: compound marked *; ref Hulpia et al. [38]; cited from earlier work
T. congolense IL3000 BSF = assay: Nucleus/kinetoplast configuration (DAPI) of T. congolense exposed to drug; assay type: cell-based, Trypanosoma congolense; details: 2× or 5× EC50, 8 h
Procedure: To assess the effect of the drug on the cellular morphology and configuration of nuclei and kinetoplasts, treated cells were collected after incubation period, fixed, DAPI-treated and viewed under an Olympus IX71 DeltaVision Core System microscope (Applied Precision, GE) using the SoftWoRx suite 2.0 software (Applied Precision, GE). At least 300 cells were scored per slide for the number of kinetoplasts (K) and nuclei (N) as 1N1K, 1N2K, 2N2K, MKMN (M = many) and ‘others’ (aberrant N/K distribution).

T. evansi = tested on: T. evansi; parameters: method as in Hulpia et al. [38]; details: compound marked *; ref Hulpia et al. [38]; cited from earlier work
T. congolense IL3000 [10] = tested on: T. congolense IL3000; parameters: method as in Hulpia et al. [38]; details: values marked *; ref Hulpia et al. [38]; cited from earlier work
TbNT10 = tested on: TbNT10; parameters: method as in Al-Salabi et al. [40]; details: called Km values; ref Al-Salabi et al. [40]; cited from earlier work
T.b.b. B48 [11] = assay: Alamar Blue (resazurin) assay, T. b. brucei B48; assay type: cell-based, Trypanosoma brucei brucei; details: Trypanosoma brucei, read-out: T.b.b. B48 EC50
Procedure, shortened: as §1

[12] = tested on: L. mexicana expressing TbAQP2; parameters: method as in PMID 24235095; details: cited from earlier work
TcoAT1 [13] = assay: Uptake of [3H]-pentamidine and [3H]-diminazene in SUPKO+TcoAT1 versus SUPKO; assay type: cell-based, Trypanosoma congolense; details: 25 nM [3H]-pentamidine or 50 nM [3H]-diminazene, SUPKO+TcoAT1 vs SUPKO
Procedure: Uptake assays using radiolabeled trypanocides and/or nucleosides were carried out as described previously. Briefly, parasite cultures were harvested, washed twice in assay buffer (33 mM HEPES, 98 mM NaCl, 4.6 mM KCl, 0.5 mM CaCl2, 0.07 mM MgSO4, 5.8 mM NaH3PO4, 0.03 mM MgCl2, 23 mM NaHCO3, 14 mM D-glucose, pH 7.3), then resuspended and adjusted to a density of 1 × 10^8 cells/mL in assay buffer. The radiolabeled permeant in the presence or absence of different concentrations of potential inhibitors reconstituted in 100 μL assay buffer was deposited on top of 250 μL oil mix in microcentrifuge tubes; 1 × 10^7 parasites in 100 μL assay buffer were added to the tube and incubated for a pre-determined interval. The reaction was stopped by the addition of 1 mL of a high concentration of ice-cold unlabeled substrate in assay buffer (‘stop solution’) and centrifugation, or by immediate centrifugation at […] as appropriate. The microcentrifuge tubes were flash-frozen, and the bottom of each tube containing the cell pellet was cut off and transferred to a scintillation vial. Cell pellets were lysed in 2% SDS, after which scintillation fluid (Scintlogic U, Lablogic) was added, followed by overnight incubation in the dark. Scintillation was measured in a 300SL (Hidex) scintillation counter (Hidex). […]

[14] = Resistance Factor relative to SUPKO

| Compound | EC50 (L. mexicana Cas9) [µM] | δ(ΔG0) (TvxNT3) [kJ/mol] | EC50 (L. mexicana SUPKO+TcoAT1) [nM] | EC50 (L. mexicana SUPKO+TvxNT3) [nM] | EC50 (L. mexicana SUPKO) [nM] | SUPKO RF (Cas9) (L. mexicana SUPKO) | Ki ([1]; T. b. brucei bloodstream forms) [µM] | Tbb P1 ΔG0 [1] [kJ/mol] | Ki ([2]; 0.05 µM [3H]-adenosine) [µM] | T. congolense 6C3 RF (T. congolense 6C3 [3]) | Ki (TcoAT1 [4]; 0.05 µM [3H]-adenosine) | ΔG0 (TcoAT1 [4]) [kJ/mol] | δ(ΔG0) (TcoAT1 [4]) [kJ/mol] | EC50 (T. congolense IL3000 [5]) [nM] | EC50 (T. vivax) [nM] | ΔG0, Gibbs free energy of interaction [2] [kJ/mol] | Km (TbNT10) [nM] | further results |
| --- | --- | --- | --- | --- | --- | --- | --- | --- | --- | --- | --- | --- | --- | --- | --- | --- | --- | --- |
| Nc1ncnc2c1ncn2[C@@H]1O[C@H](CO)C[C@H]1O [Cordycepin, 3′-deoxyadenosine] | 91.6 ± 12.9 | -4.47 | > 100000 | > 100000 | > 100000 | >1.09 | 210 ± 48 | -21.0 | 12 ± 2 | 0.88 | 4.59 µM and 4.6 µM | -30.5 | 5.94 | 2460 ± 420 | 120 ± 20 |  |  | EC50 (T. congolense 6C3 [3]; diminazene resistant strain, resazurin): 2160 ± 440 nM; fold difference in affinity compared to adenosine (TcoAT1 [4]): 10 fold; resistance of the TbAT1-KO strain (T. brucei TbAT1-KO): 17 fold |
| Nc1ncnc2c1c(Cl)cn2[C@@H]1O[C@H](CO)C[C@H]1O [FH8470, 7-chloro-7-deaza-3′-deoxyadenosine] |  |  |  |  |  |  |  |  | 17.5 ± 3.4 | 0.53 ^a | 60.6 ± 10.7 µM | -24.1 |  |  | 96 ± 82 | -27.1 |  | time to killing of the parasites (BSF T. congolense; 5 × EC50, exposure for 48 h or continuously): ≤ 72 h; time to death of the cells (BSF T. congolense; 15 × EC50, short exposure (8 h), washed out or continuous): ≤ 48 h; EC50 [6]: 12 ± 0.32 µM; SI T. congolense ([7]; selectivity index = EC50 (HEK cells)/EC50 (T. congolense)): 9800; SI T. equiperdum ([7]; selectivity index = EC50 (HEK cells)/EC50 (T. equiperdum)): 21,100; SI T. evansi ([7]; selectivity index = EC50 (HEK cells)/EC50 (T. evansi)): 6830; EC50 (T. congolense 6C3 [8]): 0.66 ± 0.03 nM; EC50 (T.b.b. B48 [9]): 6.8 ± 0.9 nM; EC50 (T. equiperdum): 0.57 ± 0.08 nM; reduction of the number of cells with 2N2K configuration (T. congolense IL3000 BSF): 40–50 % of untreated control; EC50 (T. evansi): 1.8 ± 0.2 nM; EC50 (T. congolense IL3000 [10]): 1.2 ± 0.2 nM |
| O=c1[nH]cnc2c1ncn2[C@@H]1O[C@H](CO)[C@@H](O)[C@H]1O [Inosine] |  | 5.08 |  |  |  |  | 0.44 ± 0.1 | -36.3 | 0.27 ± 0.02 |  | 0.55 ± 0.09 µM | -35.7 | 0.68 |  |  | -37.5 | 530 | remaining activity at 100 µM (TvxNT3; 100 µM inhibitor, 50 nM [3H]-adenosine): < 25% |
| N=C(N)c1ccc(OCCCCCOc2ccc(C(=N)N)cc2)cc1 [Pentamidine, reference compound] | 1.43 ± 0.05 |  | 1730 ± 200 | 2310 ± 180 | 1830 ± 290 | 1.28 |  |  |  | 0.79 |  |  |  | 550 ± 110 |  |  |  | EC50 (T.b.b. B48 [11]): 340 ± 60 nM; sensitization upon expression of TbAQP2 [12]: 40 fold; SUPKO+TcoAT1 RF (SUPKO) (L. mexicana SUPKO+TcoAT1; [14]): 1.1; SUPKO+TvxNT3 RF (SUPKO) (L. mexicana SUPKO+TvxNT3; [14]): 0.77; effect of the expression of TcoAT1 on the uptake of the trypanocide (TcoAT1 [13]): no effect; EC50 (T. congolense 6C3 [3]): 440 ± 150 nM |
| Nc1ncnc2c1ncn2[C@@H]1O[C@H](CO)[C@@H](O)[C@H]1O [Adenosine] |  |  |  |  |  |  |  | -36.8 |  |  |  | -36.4 |  |  |  | -36.0 | 410 | level of uptake of adenosine (TvxNT3; 50 nM [3H]-adenosine, SUPKO+TvxNT3): 3.9 × 10^−3 pmol(10^7 cells)^−1s^−1; remaining activity at 100 µM (TvxNT3): < 25%; Km ([1]; T. b. brucei bloodstream forms, read-out: Tbb P1 Km for adenosine): 360 ± 50 nM; Km ([2]; 0.05 µM [3H]-adenosine, 30 s incubation, bloodstream forms): 480 ± 30 nM; rate of adenosine uptake ([2]; 50 nM [3H]-adenosine, cultured IL3000): 0.014 ± 0.0037 pmol(10^7 cells)^−1s^−1; Vmax of adenosine uptake ([2]; 30 s incubation): 0.11 ± 0.02 pmol(10^7 cells)^−1s^−1; Km (TcoAT1 [4]; 0.05 µM [3H]-adenosine, 10 s incubation): 420 ± 30 nM |
